Source: paper PMC3480357, “Fragment-Hopping-Based Discovery of a Novel Chemical Series of Proto-Oncogene PIM-1 Kinase Inhibitors” (PLoS ONE, 2012)
Like-named read-outs stand apart in the source and are kept apart here. Each block holds one compound with its values, some of them ahead of it.

How the values were obtained:
Assay in all cases: ProQinase kinase panel, % inhibition at fixed concentration
Format in all cases: biochemical
AKT1 = AKT1 (Homo sapiens, UniProt P31749); settings: read-out: AKT1 percentage of inhibition
Chain of AKT1 (P31749 whole entry, species assumed, the tested form may be a part): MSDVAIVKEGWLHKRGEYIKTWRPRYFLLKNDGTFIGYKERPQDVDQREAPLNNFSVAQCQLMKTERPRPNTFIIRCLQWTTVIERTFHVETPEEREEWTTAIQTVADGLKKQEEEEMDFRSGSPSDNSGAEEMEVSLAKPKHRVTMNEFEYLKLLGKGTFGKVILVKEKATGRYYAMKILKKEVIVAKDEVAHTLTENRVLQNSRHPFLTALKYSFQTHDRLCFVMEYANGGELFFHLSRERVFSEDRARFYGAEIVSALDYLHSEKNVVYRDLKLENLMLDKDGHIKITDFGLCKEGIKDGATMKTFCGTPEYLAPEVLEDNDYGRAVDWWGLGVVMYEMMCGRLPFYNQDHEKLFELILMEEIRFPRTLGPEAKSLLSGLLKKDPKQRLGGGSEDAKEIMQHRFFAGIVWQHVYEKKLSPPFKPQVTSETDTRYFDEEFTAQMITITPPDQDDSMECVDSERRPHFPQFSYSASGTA
Protocol: (§1) Once compounds 7 and 8 were synthesized, a pairwise comparison was performed to strictly evaluate the real impact of this fragment-hopping where imidazopyridazine is replaced by triazolopyridine.

ARK5 = target: T1, ARK5 (Homo sapiens, UniProt O60285)
T1 sequence (O60285 1-661): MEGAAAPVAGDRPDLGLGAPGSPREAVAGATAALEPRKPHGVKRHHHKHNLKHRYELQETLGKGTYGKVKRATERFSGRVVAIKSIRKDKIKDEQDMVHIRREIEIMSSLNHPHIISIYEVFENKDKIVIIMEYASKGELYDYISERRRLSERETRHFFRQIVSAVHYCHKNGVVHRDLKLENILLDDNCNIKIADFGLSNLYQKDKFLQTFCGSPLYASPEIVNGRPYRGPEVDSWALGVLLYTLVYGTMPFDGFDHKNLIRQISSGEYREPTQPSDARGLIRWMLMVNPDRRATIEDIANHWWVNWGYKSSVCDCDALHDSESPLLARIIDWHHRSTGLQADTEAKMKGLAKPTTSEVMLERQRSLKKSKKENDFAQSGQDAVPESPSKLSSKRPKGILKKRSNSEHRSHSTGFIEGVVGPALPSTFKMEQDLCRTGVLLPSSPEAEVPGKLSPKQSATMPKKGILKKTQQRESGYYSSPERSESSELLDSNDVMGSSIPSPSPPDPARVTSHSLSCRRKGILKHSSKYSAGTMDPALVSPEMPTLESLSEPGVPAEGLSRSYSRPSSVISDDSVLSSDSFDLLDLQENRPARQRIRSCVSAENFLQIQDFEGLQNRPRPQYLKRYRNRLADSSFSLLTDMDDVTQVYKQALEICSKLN
Protocol: as §1

B-RAF-V600E = B-RAF-V600E (Homo sapiens, UniProt P15056, V600E)
Chain of B-RAF-V600E (P15056 whole entry V600E): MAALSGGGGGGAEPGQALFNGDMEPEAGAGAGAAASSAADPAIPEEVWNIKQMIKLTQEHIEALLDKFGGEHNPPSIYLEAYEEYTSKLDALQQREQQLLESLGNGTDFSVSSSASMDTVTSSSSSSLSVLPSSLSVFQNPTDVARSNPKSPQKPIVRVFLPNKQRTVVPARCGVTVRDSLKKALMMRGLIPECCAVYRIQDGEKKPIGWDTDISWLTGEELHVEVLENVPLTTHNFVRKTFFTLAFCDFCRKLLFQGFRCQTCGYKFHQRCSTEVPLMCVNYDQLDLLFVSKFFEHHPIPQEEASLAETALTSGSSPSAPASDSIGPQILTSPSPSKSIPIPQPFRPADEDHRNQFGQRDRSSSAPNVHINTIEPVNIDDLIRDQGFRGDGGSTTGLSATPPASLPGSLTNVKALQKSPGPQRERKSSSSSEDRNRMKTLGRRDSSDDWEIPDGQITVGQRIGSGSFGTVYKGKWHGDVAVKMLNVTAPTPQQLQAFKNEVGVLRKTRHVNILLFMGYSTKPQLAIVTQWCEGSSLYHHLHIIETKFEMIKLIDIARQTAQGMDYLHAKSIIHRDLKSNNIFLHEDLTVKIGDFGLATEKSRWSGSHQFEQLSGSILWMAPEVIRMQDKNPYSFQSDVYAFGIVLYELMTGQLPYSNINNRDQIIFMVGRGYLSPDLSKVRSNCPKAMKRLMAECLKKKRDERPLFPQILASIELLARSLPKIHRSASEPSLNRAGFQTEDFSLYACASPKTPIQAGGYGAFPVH
Protocol: as §1

CK1-α1 = CK1-α1 (Homo sapiens, UniProt P48729); settings: for inhibition at 10 µM: inhibitor at 10 µM
Protocol: as §1

DYRK1A = DYRK1A (Homo sapiens, UniProt Q13627); settings: for inhibition at 10 µM: inhibitor at 10 µM
Protocol: as §1

EGF-R = EGF-R (Homo sapiens, UniProt P00533)
Protocol: as §1

FGF-R1 = FGF-R1 (Homo sapiens, UniProt P11362); settings: for inhibition at 10 µM: inhibitor at 10 µM
Protocol: as §1

IGF1-R = IGF1-R (Homo sapiens, UniProt P08069); settings: read-out: IGF1-R percentage of inhibition
Chain of IGF1-R (P08069 31-1367, species assumed): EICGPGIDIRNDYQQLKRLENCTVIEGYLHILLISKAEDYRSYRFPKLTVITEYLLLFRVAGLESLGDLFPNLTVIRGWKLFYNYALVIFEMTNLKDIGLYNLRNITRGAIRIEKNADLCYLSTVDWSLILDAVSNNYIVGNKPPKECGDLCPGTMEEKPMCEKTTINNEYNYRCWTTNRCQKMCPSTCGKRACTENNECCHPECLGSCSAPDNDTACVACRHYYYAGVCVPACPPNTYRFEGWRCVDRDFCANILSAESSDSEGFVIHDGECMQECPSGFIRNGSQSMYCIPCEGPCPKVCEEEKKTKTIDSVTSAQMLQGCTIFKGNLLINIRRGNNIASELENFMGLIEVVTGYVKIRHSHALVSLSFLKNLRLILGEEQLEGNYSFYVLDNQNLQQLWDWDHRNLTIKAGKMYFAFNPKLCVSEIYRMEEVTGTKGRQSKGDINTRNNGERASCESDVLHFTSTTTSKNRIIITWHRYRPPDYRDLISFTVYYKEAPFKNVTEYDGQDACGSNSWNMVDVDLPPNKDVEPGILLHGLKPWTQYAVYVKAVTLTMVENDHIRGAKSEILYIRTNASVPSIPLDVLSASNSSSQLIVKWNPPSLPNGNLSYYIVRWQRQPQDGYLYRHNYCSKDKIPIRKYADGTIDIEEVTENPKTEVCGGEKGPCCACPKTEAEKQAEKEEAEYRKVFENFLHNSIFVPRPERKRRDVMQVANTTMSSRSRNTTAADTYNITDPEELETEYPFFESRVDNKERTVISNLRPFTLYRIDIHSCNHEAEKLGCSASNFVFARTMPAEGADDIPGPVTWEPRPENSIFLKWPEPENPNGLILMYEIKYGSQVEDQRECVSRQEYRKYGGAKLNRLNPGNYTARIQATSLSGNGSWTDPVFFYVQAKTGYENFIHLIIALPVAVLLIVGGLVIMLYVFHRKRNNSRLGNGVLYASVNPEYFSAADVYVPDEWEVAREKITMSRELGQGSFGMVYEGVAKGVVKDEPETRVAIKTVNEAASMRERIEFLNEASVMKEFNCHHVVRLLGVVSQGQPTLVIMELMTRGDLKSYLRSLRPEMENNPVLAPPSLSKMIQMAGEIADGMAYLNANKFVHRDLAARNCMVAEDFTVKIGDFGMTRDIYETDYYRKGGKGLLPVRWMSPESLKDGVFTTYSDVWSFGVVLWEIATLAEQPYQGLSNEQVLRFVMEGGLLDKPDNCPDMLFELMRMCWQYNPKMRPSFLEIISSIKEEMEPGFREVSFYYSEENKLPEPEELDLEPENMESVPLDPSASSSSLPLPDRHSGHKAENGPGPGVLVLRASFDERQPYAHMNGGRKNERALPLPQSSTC
Protocol: as §1

JAK2 = JAK2 (Homo sapiens, UniProt O60674); settings: average of two data points, read-out: JAK2 percentage of inhibition; for inhibition at 10 µM: inhibitor at 10 µM
Chain of JAK2 (O60674 whole entry, species assumed): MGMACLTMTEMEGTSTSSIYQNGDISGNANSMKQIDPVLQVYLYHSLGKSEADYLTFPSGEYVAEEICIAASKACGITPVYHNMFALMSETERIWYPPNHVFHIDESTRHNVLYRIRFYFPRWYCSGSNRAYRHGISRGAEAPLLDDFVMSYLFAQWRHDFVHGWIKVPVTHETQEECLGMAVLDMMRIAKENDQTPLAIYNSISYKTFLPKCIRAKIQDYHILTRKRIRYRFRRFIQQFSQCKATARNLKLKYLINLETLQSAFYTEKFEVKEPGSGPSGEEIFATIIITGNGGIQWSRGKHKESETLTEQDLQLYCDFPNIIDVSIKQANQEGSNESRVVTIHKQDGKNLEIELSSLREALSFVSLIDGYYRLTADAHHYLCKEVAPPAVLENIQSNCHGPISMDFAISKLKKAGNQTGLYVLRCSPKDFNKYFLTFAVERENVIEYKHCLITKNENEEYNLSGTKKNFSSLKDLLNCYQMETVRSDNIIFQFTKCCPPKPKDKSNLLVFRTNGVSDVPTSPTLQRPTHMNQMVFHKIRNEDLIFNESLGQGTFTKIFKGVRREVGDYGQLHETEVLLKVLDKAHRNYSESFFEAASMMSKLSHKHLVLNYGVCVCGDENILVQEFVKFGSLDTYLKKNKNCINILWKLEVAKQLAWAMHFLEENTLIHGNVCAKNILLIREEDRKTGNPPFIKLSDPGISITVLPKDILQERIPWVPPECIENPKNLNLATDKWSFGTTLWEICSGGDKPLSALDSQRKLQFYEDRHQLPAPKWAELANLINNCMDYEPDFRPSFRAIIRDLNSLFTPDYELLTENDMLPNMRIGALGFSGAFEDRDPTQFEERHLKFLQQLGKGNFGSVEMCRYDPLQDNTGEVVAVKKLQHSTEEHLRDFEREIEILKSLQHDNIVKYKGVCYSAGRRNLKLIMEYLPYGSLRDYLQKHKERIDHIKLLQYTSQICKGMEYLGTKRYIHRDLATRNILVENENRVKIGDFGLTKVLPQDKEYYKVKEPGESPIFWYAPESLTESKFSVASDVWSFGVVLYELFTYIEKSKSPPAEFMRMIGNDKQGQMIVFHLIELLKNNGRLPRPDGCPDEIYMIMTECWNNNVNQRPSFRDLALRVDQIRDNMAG
Protocol: as §1

MET = MET (Homo sapiens, UniProt P08581); settings: read-out: MET percentage of inhibition
Chain of MET (P08581 25-1390): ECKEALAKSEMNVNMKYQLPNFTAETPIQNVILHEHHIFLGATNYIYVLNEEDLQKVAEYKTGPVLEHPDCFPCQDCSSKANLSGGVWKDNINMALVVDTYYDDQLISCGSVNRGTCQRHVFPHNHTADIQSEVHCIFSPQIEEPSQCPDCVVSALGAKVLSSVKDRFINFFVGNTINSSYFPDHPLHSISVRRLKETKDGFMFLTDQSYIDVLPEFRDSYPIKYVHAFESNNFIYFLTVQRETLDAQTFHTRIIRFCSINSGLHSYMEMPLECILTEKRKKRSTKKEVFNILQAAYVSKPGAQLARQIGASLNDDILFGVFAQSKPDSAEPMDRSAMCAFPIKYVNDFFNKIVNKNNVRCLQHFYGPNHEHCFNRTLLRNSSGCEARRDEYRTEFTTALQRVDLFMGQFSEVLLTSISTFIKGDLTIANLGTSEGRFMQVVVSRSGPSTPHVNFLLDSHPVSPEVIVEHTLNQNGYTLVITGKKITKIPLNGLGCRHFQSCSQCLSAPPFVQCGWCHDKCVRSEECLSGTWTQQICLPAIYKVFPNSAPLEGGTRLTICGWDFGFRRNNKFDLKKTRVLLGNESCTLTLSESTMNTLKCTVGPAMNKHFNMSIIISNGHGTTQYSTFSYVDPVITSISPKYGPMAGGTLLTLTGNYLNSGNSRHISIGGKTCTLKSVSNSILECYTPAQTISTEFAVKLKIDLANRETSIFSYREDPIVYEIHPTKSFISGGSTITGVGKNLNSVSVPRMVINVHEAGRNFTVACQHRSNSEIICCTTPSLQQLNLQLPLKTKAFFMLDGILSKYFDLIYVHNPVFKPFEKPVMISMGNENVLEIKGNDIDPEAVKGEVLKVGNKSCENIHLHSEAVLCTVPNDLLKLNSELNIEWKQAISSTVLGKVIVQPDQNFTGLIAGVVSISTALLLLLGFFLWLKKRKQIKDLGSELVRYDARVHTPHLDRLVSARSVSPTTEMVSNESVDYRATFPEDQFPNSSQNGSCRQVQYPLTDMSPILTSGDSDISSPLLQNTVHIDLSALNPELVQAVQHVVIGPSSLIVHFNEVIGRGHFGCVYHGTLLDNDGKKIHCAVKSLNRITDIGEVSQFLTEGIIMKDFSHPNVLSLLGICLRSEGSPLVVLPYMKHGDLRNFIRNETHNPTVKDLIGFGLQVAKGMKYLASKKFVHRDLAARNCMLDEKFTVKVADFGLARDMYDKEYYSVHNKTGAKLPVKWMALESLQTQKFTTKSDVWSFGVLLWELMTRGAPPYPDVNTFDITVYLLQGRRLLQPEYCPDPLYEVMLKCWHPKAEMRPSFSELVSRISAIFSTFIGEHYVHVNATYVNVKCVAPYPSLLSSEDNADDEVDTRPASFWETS
Protocol: as §1

MST1 = target: T2, MST1 (Homo sapiens, UniProt Q13043); settings: for inhibition at 10 µM: inhibitor at 10 µM
T2 sequence (Q13043 1-487): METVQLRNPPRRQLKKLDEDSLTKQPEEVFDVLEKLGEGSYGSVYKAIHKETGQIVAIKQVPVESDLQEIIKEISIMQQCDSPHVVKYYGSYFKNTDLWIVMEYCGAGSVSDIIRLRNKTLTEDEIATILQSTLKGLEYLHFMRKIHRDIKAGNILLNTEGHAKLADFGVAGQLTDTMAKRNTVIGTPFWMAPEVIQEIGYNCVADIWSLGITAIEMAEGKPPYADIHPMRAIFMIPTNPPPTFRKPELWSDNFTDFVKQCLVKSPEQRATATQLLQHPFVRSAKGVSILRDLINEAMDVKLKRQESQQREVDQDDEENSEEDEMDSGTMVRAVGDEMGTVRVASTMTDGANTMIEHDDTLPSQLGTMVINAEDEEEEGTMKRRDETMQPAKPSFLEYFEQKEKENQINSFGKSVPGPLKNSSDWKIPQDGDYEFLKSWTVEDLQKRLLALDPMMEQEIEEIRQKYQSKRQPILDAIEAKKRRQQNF
Protocol: as §1

PAK1 = PAK1 (Homo sapiens, UniProt Q13153); settings: read-out: PAK1 percentage of inhibition
Protocol: as §1

PDGFR-α = PDGFR-α (Homo sapiens, UniProt P16234)
Protocol: as §1

RPS6KA1 = RPS6KA1 (Homo sapiens, UniProt Q15418)
Protocol: as §1

SGK1 = target: T3, SGK1 (Homo sapiens, UniProt O00141); settings: for inhibition at 10 µM: inhibitor at 10 µM
T3 sequence (O00141 1-431): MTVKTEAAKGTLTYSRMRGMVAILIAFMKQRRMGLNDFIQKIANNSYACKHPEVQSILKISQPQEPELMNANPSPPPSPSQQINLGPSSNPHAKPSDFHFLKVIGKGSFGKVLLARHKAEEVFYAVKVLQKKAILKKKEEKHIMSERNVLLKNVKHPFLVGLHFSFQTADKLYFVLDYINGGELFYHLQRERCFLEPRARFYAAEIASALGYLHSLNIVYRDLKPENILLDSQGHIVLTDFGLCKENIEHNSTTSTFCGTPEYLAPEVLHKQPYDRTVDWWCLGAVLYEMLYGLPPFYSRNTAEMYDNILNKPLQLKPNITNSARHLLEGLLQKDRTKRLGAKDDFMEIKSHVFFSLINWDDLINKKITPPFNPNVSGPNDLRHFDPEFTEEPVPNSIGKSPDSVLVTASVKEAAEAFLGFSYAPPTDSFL
Protocol: as §1

[1] = average of two data points, read-out: CK1-α1 percentage of inhibition
[2] = average of two data points, read-out: DYRK1A percentage of inhibition
[3] = average of two data points, read-out: FGF-R1 percentage of inhibition
[4] = average of two data points, read-out: MST1 percentage of inhibition
[5] = average of two data points, read-out: SGK1 percentage of inhibition
[6] = inhibitor at 10 µM, average of two data points
[7] = compound 7 vs compound 1, 10 µM
[8] = inhibitor at 5 µM, average of two data points
[9] = compound 8 (5 µM) versus compound 3 (10 µM)
[10] = compound 8 (5 µM) vs compound 3 (10 µM)

SMILES: CN1CCC(CNc2ccc3ncc(-c4cccc(OC(F)(F)F)c4)n3n2)CC1 [Compound 3, reference compound]
- inhibition at 10 µM (AKT1): 0%
- inhibition at 10 µM (ARK5; read-out: ARK5 percentage of inhibition): 42%
- inhibition at 10 µM (B-RAF-V600E; read-out: B-RAF-V600E percentage of inhibition): 41%
- inhibition at 10 µM (CK1-α1; [1]): 0%
- inhibition at 10 µM (DYRK1A; [2]): 19%
- inhibition at 10 µM (EGF-R; read-out: EGF-R percentage of inhibition): 32%
- inhibition at 10 µM (FGF-R1; [3]): 65%
- inhibition at 10 µM (IGF1-R): 53%
- inhibition at 10 µM (JAK2): 3%
- inhibition at 10 µM (MET): 12%
- inhibition at 10 µM (MST1; [4]): 60%
- inhibition at 5 µM (PAK1): 8%
- inhibition at 10 µM (PDGFR-α; read-out: PDGFR-α percentage of inhibition): 92%
- inhibition at 10 µM (RPS6KA1; read-out: RPS6KA1 percentage of inhibition): 48%
- inhibition at 10 µM (SGK1; [5]): 55%

- inhibition at 10 µM (AKT1; [6]): 0%
- inhibition at 10 µM (ARK5; inhibitor at 10 µM, average of two data points, read-out: ARK5 percentage of inhibition): 13%
- inhibition at 10 µM (B-RAF-V600E; inhibitor at 10 µM, average of two data points, read-out: B-RAF-V600E percentage of inhibition): 8%
- inhibition at 10 µM (CK1-α1; [1]): 8%
- DYRK1A reduction of percentage of inhibition (DYRK1A; compound 7 compared to compound 1, 10 µM): more than 25%
- inhibition at 10 µM (DYRK1A; [2]): > 70%
- inhibition at 10 µM (EGF-R; inhibitor at 10 µM, average of two data points, read-out: EGF-R percentage of inhibition): 8%
- inhibition at 10 µM (FGF-R1; [3]): 19%
- inhibition at 10 µM (IGF1-R; [6]): 9%
- inhibition at 10 µM (JAK2): 30%
- inhibition at 10 µM (MET; [6]): 21%
- inhibition at 10 µM (MST1; [4]): 29%
- inhibition at 10 µM (PAK1; [6]): 5%
- inhibition at 10 µM (PDGFR-α; inhibitor at 10 µM, average of two data points, read-out: PDGFR-α percentage of inhibition): 53%
- inhibition at 10 µM (RPS6KA1; inhibitor at 10 µM, average of two data points, read-out: RPS6KA1 percentage of inhibition): 45%
- inhibition at 10 µM (SGK1; [5]): 12%
SMILES: Oc1ccc(-n2nnc3ccc(NCc4ccc(F)cc4)nc32)cc1 [Compound 7, 4-[5-(4-Fluoro-benzylamino)-[1], [2], [3]triazolo[4,5-b]pyridin-3-yl]-phenol]
- ARK5 improvement in percentage of inhibition (ARK5; [7]): c (This designation indicates that the improvement in percentage of inhibition was equal or greater than 50%)
- B-RAF-V600E improvement in percentage of inhibition (B-RAF-V600E; [7]): b (This designation indicates that the improvement in percentage of inhibition was equal or greater than 25%)
- CK1-α1 improvement in percentage of inhibition (CK1-α1; [7]): b (This designation indicates that the improvement in percentage of inhibition was equal or greater than 25%)
- DYRK1A improvement in percentage of inhibition (DYRK1A; [7]): b (This designation indicates that the improvement in percentage of inhibition was equal or greater than 25%)
- EGF-R improvement in percentage of inhibition (EGF-R; [7]): b (This designation indicates that the improvement in percentage of inhibition was equal or greater than 25%)
- FGF-R1 improvement in percentage of inhibition (FGF-R1; [7]): c (This designation indicates that the improvement in percentage of inhibition was equal or greater than 50%)
- MST1 improvement in percentage of inhibition (MST1; [7]): c (This designation indicates that the improvement in percentage of inhibition was equal or greater than 50%)
- PDGFR-α improvement in percentage of inhibition (PDGFR-α; [7]): b (This designation indicates that the improvement in percentage of inhibition was equal or greater than 25%)
- RPS6KA1 improvement in percentage of inhibition (RPS6KA1; [7]): c (This designation indicates that the improvement in percentage of inhibition was equal or greater than 50%)
- SGK1 improvement in percentage of inhibition (SGK1; [7]): c (This designation indicates that the improvement in percentage of inhibition was equal or greater than 50%)

- inhibition at 5 µM (AKT1; [8]): 0%
- inhibition at 5 µM (ARK5; inhibitor at 5 µM, average of two data points, read-out: ARK5 percentage of inhibition): 18%
- inhibition at 5 µM (B-RAF-V600E; inhibitor at 5 µM, average of two data points, read-out: B-RAF-V600E percentage of inhibition): 10%
- inhibition at 5 µM (CK1-α1; inhibitor at 5 µM, average of two data points, read-out: CK1-α1 percentage of inhibition): 8%
- inhibition at 5 µM (DYRK1A; inhibitor at 5 µM, average of two data points, read-out: DYRK1A percentage of inhibition): 3%
- inhibition at 5 µM (EGF-R; inhibitor at 5 µM, average of two data points, read-out: EGF-R percentage of inhibition): 18%
- inhibition at 5 µM (FGF-R1; inhibitor at 5 µM, average of two data points, read-out: FGF-R1 percentage of inhibition): 16%
- inhibition at 5 µM (IGF1-R; [8]): 25%
- inhibition at 5 µM (JAK2; inhibitor at 5 µM): 0%
- inhibition at 5 µM (MET; [8]): 6%
- inhibition at 5 µM (MST1; inhibitor at 5 µM, average of two data points, read-out: MST1 percentage of inhibition): 20%
- inhibition at 5 µM (PAK1; [8]): 2%
- PDGFR-α increment in percentage of inhibition (PDGFR-α; [9]): > 50%
- inhibition at 5 µM (PDGFR-α; inhibitor at 5 µM, average of two data points, read-out: PDGFR-α percentage of inhibition): 20%
- inhibition at 5 µM (RPS6KA1; inhibitor at 5 µM, average of two data points, read-out: RPS6KA1 percentage of inhibition): 37%
- SGK1 increment in percentage of inhibition (SGK1; [9]): > 50%
- inhibition at 5 µM (SGK1; inhibitor at 5 µM, average of two data points, read-out: SGK1 percentage of inhibition): 0%
SMILES: CN1CCC(CNc2ccc3nnn(-c4cccc(OC(F)(F)F)c4)c3n2)CC1 [Compound 8, (1-Methyl-piperidin-4-ylmethyl)-[3-(3-trifluoromethoxy-phenyl)-3H-[1], [2], [3]triazolo[4,5-b]pyridin-5-yl]-amine]
- PDGFR-α improvement in percentage of inhibition (PDGFR-α; [10]): c (This designation indicates that the improvement in percentage of inhibition was greater than 50%)
- SGK1 improvement in percentage of inhibition (SGK1; [10]): c (This designation indicates that the improvement in percentage of inhibition was greater than 50%)
